What was measured:
PANC-1 cells [1] = assay: 'Wound healing' migration assay, PANC-1; type: cell-based, human; conditions: PANC-1
Method: (§1) Cell migration was tested by the ‘wound’ healing assay, as described elsewhere. Briefly, MIA PaCa-2 and PANC-1 cells were seeded into 24-well plates (Corning). MIA PaCa-2 at a density of 80,000 cells/well and PANC-1 at a density of 60,000 cells/well in 500 μL of medium and incubated in a humidified atmosphere containing 5% CO2 at 37 °C for 1 day. Then the monolayers were scratched with a sterile 100 μL pipette plastic tip in the centre of the well. The old cell medium is aspirated, the wells are rinsed with 400 μL phosphate-buffered saline (PBS, Gibco). […] Photos of ‘wounds’ were taken every 24 h for 3 days and the compound effect was evaluated by measuring the size of the “wound” area. Images were analysed by TScratch software (CSE Lab, Zurich, Switzerland).

[2] = test system: MIA PaCa-2 and PANC-1 cells; assay: MTT cell viability, both pancreatic cancer cell lines; type: cell-based, human; conditions: for reduction of viability compared to sunitinib / reduction of cell viability: 1 µM; for reduction of viability compared to sunitinib: 72 h, both cancer cell lines; for reduction of cell viability: 72 h of incubation, at least one cell line; for activity on cell viability, comparison between cell lines: EC50 comparison MIA PaCa-2 vs PANC-1
Method: Cell viability was tested using MTT (3-(4,5-dimethylthiazol-2-yl)-2,5-diphenyltetrazolium bromide; Sigma-Aldrich Co.) assay, as described previously Briefly, MIA PaCa-2 and PANC-1 cells were seeded in 96-well plates (Corning, NY, USA) in a volume of 100 μL (4000 cells/well). After 24 h incubation, the cells were treated with sunitinib and its derivatives. Only the medium without cells was used as a positive control, and the medium with 0.5% DMSO (Sigma-Aldrich Co.) served as a negative control. After 72 h the cells were incubated with the 0.5 mg/mL of MTT solution for the next 4 h. The coloured formazan product was dissolved in 100 μL DMSO. The absorbance was measured spectrophotometrically at wavelengths 570 and 630 nm. […] When determining the EC50 values of the compounds under hypoxic conditions, the growth medium was supplemented with 100 µM of CoCl2 solution (97%, Alfa Aesar, MA, USA).

MIA PaCa-2 cells [3] = assay: Clonogenic assay, MIA PaCa-2; type: cell-based, human
Method: (§2) Compound effect on cell colony formation and growth was established by clonogenic assay, as previously published. […] Cells were incubated in a humidified atmosphere containing 5% CO2 at 37 °C and grown for 8 days. After incubation, the cells were rinsed with PBS and fixed with 10% formaldehyde, methanol-free (ThermoFisher Scientific, Waltham, MA, USA) solution for 20 min. Then the cells were rinsed with PBS two more times, and cell colonies were stained with 0.1% aqueous crystal violet solution (Sigma-Aldrich Co.) for 20 min, followed by rinses with sterile deionized water to remove the excess dye. Photos of colonies were taken using the G:BOX gel documentation system (Syngene International Ltd., Bengaluru, India) and Genesys software (Syngene International Ltd.). The number of colonies and their area were calculated using GeneTools colony and cell counting software (Syngene International Ltd.) according to the manufacturer’s instructions. Cell colony area and number in control groups were normalized to 100%. The percentage of drug-treated colony area and number were compared to the control.

MIA PaCa-2 cells [4] = assay: 'Wound healing' migration assay, MIA PaCa-2; type: cell-based, human; conditions: for inhibition of migration, hypoxia compared with normoxia: MIA PaCa-2
Method: as §1

PANC-1 cells [5] = assay: Clonogenic assay, PANC-1; type: cell-based, human; conditions: 90% of EC50, normoxia
Method: as §2

human fibroblasts = assay: MTT cell viability, human fibroblasts (selectivity); type: cell-based; conditions: human fibroblasts

COc1ccc(C2CC(c3ccc4ccccc4c3)=NN2C2=NC(=O)/C(=C3/C(=O)Nc4ccc(I)cc43)S2)cc1 (stereo not drawn) [EMAC4006]
inhibition of migration, hypoxia compared with normoxia (PANC-1 cells [1]): stronger under hypoxia than normoxia
reduction of viability compared to sunitinib [2]: statistically significantly stronger reduced
reduction of cell viability [2]: 90%
activity on cell viability, comparison between cell lines [2]: inhibited more efficiently the cell viability of the MIA PaCa-2 cell line
MIA PaCa-2 cell colony formation (MIA PaCa-2 cells [3]; 90% of EC50, normoxia): statistically significantly inhibited
inhibition of migration, hypoxia compared with normoxia (MIA PaCa-2 cells [4]): less than under normoxia
cell migration (MIA PaCa-2 cells [4]; normoxia, higher concentrations (90% of EC50)): inhibited cell migration
PANC-1 cell colony formation (number) compared to the control (PANC-1 cells [5]): inhibited the colony formation of PANC-1 cells

COc1ccc(C2CC(c3ccc4ccccc4c3)=NN2C2=NC(=O)/C(=C3/C(=O)Nc4ccc(OC)cc43)S2)cc1 (stereo not drawn) [EMAC4007]
effect on viability of non-cancerous cells (human fibroblasts) (human fibroblasts): significantly reduce the viability of non-cancerous cells
reduction of viability compared to sunitinib [2]: statistically significantly stronger reduced
reduction of cell viability [2]: 90%

COc1ccc(C2CC(c3ccc4ccccc4c3)=NN2C2=NC(=O)/C(=C3/C(=O)Nc4ccc(C)cc43)S2)cc1 (stereo not drawn) [EMAC4008]
inhibition of migration, hypoxia compared with normoxia (PANC-1 cells [1]): stronger under hypoxia than normoxia
reduction of viability compared to sunitinib [2]: statistically significantly stronger reduced
reduction of cell viability [2]: 90%
activity on cell viability, hypoxia compared with normoxia ([2]; EC50 comparison): more active against both cell lines under hypoxia conditions
activity on cell viability, comparison between cell lines [2]: more active in the PANC-1 cell line
MIA PaCa-2 cell colony growth, hypoxia compared with normoxia (MIA PaCa-2 cells [3]): stronger effect on the MIA PaCa-2 cell colony growth under hypoxia than normoxia

COc1ccc(C2CC(c3ccc4ccccc4c3)=NN2C2=NC(=O)/C(=C3/C(=O)Nc4ccc(C(F)(F)F)cc43)S2)cc1 (stereo not drawn) [EMAC4009]
effect on viability of non-cancerous cells (human fibroblasts) (human fibroblasts): significantly reduce the viability of non-cancerous cells
reduction of viability compared to sunitinib [2]: statistically significantly stronger reduced
reduction of cell viability [2]: 90%

COc1ccc(C2CC(c3cccs3)=NN2C2=NC(=O)/C(=C3/C(=O)Nc4ccc(I)cc43)S2)cc1 (stereo not drawn) [EMAC4017]
inhibition of migration, hypoxia compared with normoxia (PANC-1 cells [1]): stronger under hypoxia than normoxia
reduction of viability compared to sunitinib [2]: statistically significantly stronger reduced
reduction of cell viability [2]: 90%
MIA PaCa-2 cell colony growth, hypoxia compared with normoxia (MIA PaCa-2 cells [3]): stronger effect on the MIA PaCa-2 cell colony growth under hypoxia than normoxia
MIA PaCa-2 cell colony formation (MIA PaCa-2 cells [3]; hypoxia): significantly reduced the MIA PaCa-2 cell colony formation
MIA PaCa-2 colony number compared to sunitinib (MIA PaCa-2 cells [3]; lower concentration (10% of EC50), hypoxia): stronger than sunitinib
inhibition of migration, hypoxia compared with normoxia (MIA PaCa-2 cells [4]): less than under normoxia
